Assay results taken from paper PMC9165844 (PLoS ONE, 2022).
pIC50, pKi: −log10 of the molar value. Entries after “also recorded” stand apart in the source; their conditions may differ.

Key:
PC12 = test: Cytotoxic effect by MTT assay on PC12 cells; settings: 12.5-200 μM
NIH3T3 fibroblasts = test: Cytotoxic effect by MTT assay on NIH3T3 fibroblasts; settings: 12.5-200 μM
[1] = Solubility in solvents noted for the synthesized compounds; format: physicochemical; settings: qualitative
BACE 1 = BACE 1 (Homo sapiens, UniProt P56817); test: Inhibition of BACE 1 activity (FRET kit); settings: for BACE1 inhibitory activity (in words): FRET
AChE = AChE (Electrophorus electricus, UniProt O42275); test: biochemical; settings: for pKi: read-out: AChE inhibition constant (Ki)
astrocytes = test: Cytotoxic effect by MTT assay on astrocytes; settings: for Cytotoxicity in astrocyte cultures: MTT, 12.5-200 μM; for Astrocytes viability: control for cytotoxicity effect
Aβ1–42 = target: T1, Aβ1–42 (Homo sapiens, UniProt P05067); test: Inhibition of Aβ1–42 aggregation by Thioflavin T (ThT) assay; format: biochemical; settings: compound at 100 μM, 48 h, 37°C, ThT fluorescence; read-out: Percentage of inhibition of Aβ1–42 fibrillation
T1 construct: Aβ of 42 aa residues (Aβ1–42) represents the most amyloidogenic and toxic form; purchased Calbiochem PP69
T1 sequence (P05067 672-713): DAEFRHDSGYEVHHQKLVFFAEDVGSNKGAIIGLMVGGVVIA

Chain of AChE (O42275 24-633 limits assumed): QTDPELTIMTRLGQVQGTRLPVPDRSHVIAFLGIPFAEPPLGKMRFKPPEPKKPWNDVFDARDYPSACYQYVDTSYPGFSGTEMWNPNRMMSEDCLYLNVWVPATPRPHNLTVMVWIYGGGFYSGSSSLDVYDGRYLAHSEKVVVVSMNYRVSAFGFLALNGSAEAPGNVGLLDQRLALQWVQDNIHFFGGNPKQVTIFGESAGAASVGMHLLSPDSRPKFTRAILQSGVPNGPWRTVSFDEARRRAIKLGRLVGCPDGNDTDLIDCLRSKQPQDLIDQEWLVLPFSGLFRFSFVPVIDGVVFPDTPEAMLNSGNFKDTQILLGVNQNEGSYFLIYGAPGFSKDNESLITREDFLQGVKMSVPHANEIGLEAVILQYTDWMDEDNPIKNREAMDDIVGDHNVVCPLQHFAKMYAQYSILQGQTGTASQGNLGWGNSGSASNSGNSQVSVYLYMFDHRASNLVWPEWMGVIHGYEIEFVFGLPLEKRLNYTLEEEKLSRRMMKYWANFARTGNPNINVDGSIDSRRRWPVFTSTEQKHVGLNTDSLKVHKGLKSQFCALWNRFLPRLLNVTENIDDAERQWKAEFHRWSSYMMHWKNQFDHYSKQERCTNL
Chain of BACE 1 (P56817 46-501): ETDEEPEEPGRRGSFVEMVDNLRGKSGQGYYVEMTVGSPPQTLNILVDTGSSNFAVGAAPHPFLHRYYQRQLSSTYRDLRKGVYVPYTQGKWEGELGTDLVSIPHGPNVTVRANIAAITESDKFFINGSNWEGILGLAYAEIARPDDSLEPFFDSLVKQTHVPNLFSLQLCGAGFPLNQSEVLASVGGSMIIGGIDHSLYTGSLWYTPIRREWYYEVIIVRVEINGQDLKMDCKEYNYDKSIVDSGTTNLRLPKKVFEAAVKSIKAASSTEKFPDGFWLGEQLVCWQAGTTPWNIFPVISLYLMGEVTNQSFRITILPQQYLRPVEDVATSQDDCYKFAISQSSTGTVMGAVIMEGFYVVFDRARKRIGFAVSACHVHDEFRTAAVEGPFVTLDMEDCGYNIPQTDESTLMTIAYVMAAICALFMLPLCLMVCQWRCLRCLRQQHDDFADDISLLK

SMILES	Cytotoxicity in PC12 cell cultures (PC12)	Cytotoxicity in fibroblast cultures (NIH3T3 fibroblasts)	Solubility (solvents) [1]	pIC50 (BACE 1)	BACE1 inhibitory activity (in words) (BACE 1)	AChE inhibitory activity (in words) (AChE)	pKi (AChE)	Cytotoxicity in astrocyte cultures (astrocytes)	inhibition at 100 µM (Aβ1–42) [%]	Astrocytes viability (astrocytes; at 100 μM) [%]	Astrocytes viability (astrocytes; at concentrations 1 μM ≤)
COc1ccc(CN)cc1OCCN1CCCCC1 [Compound F2S4-m, (4-methoxy-3-(2-(piperidin-1-yl)ethoxy)phenyl) methanamine]	not cytotoxic	not cytotoxic	MetOH, EtOH, Acetone, CHCl3, EtOAc, H2O	4.80	showed inhibitory activity	showed inhibitory activity	6.40	not cytotoxic	60.9	–	–
[Cl][Cd][Cl] [Cadmium chloride, reference compound]	–	–	–	–	–	–	–	–	–	25	above 80%
COc1ccc(CN)cc1OCCN1CCCC1 [Compound F3S4-m, (4-methoxy-3-(2-(pyrrolidin-1-yl)ethoxy)phenyl) methanamine]	not cytotoxic	not cytotoxic	MetOH, EtOH, Acetone	5.08	showed inhibitory activity	showed inhibitory activity	6.72	not cytotoxic	30.5	–	–
COc1cc(CN)ccc1OCCN1CCCCC1 [Compound F2S4-p, (3-methoxy-4-(2-(piperidin-1-yl)ethoxy)phenyl) methanamine]	–	showed cytotoxic	MetOH, EtOH, water	–	not possible to determine its IC50 value; also recorded: did not show inhibitory activity; also recorded: did not show inhibition	no significant effect; also recorded: did not show inhibitory activity; also recorded: did not show inhibition	< 4.00	–	42.1	–	–
